The values below come from patent US10927085B2, “1,2-naphthoquinone based derivative and method of preparing the same” (HUEN Co., Ltd., priority 2013, dated 2021).

Read-outs that look alike come from different tables or passages of the source.

For one test, the target named is NQO1 protein (Homo sapiens, UniProt P15559). Put plainly: NQO1 activity measurement (cytochrome C reduction). It is filed as biochemical. As to the method:
An enzyme reaction solution included 25 mM Tris/HCl (pH 7.4), 0.14% bovine serum albumin, 200 μM NADH, 77 μM cytochrome C, and 5 ng of NQO1 protein. Enzymatic reaction was initiated by adding NADH and performed at 37° C. In this regard, a reaction rate was measured by observing absorbance, which was increased due to reduction of cytochrome C, at 550 nm for 10 minutes and NQO1 activity was represented as an amount of reduced cytochrome C [nmol cytochrome C reduced/min/μg protein].
Extinction coefficient for cytochrome C:21.1 mmol/L/cm=21.1 μmol/ml/cm

The subject of a further test is cells. The test is described as follows: Measurement of lactate change amount within cells. The format is cell-based. The method, then: Cells were treated with 400 μl of 6% PCA, and then collected and extracted. Centrifugation (13,000 rpm, 10 min) was performed. A precipitate was dried using a Speed-Vac and then a weight of dried precipitate was measured. A supernatant was neutralized using 400 μl of 1 M KOH and a final volume thereof was adjusted to 1 ml using 0.33 M KH2PO4/K2HPO4, pH 7.5. Centrifugation (13,000 rpm, 10 min) was performed and the amount of lactate in a supernatant was measured (Megazyme, K-LATE).

Setting [1] is: 5 μM, 37° C., absorbance at 550 nm for 10 minutes, 200 μM NADH, 77 μM cytochrome C, 5 ng NQO1 protein.

Chain of NQO1 protein (P15559 whole entry, species assumed): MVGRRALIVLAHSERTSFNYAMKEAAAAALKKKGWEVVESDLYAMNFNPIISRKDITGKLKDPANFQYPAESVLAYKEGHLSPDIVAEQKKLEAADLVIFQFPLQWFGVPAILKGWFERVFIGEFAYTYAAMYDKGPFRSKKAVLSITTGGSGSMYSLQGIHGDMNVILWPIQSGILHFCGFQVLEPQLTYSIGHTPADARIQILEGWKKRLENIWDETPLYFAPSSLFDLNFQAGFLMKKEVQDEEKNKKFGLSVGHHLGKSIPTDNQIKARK

Take `O=C1C(=O)c2nc(-c3ccccc3)oc2-c2ccccc21` [Example 3, 2-phenylnaphtho[2,1-d]oxazole-4,5-dione]: the “NQO1 activity (5 μM, [nmol cytochrome C reduced/min/μg protein])” value on NQO1 protein (setting [1]) is given as 255.5 nmol cytochrome C reduced/min/μg protein. Moreover, the “Lactate change amount within cells (nmol/mg cell)” value (“Lactate change amount within cells” for short) in the test with cells came to 8.1 nmol/mg cell.
Take `O=C1C(=O)c2nc(CN3CCCCC3)oc2-c2ccccc21` [Example 6, 2-(piperidin-1-ylmethyl)naphtho[2,1-d]oxazole-4,5-dione]: at NQO1 protein (setting [1]), the “NQO1 activity (5 μM, [nmol cytochrome C reduced/min/μg protein])” value is given as 171.8 nmol cytochrome C reduced/min/μg protein. In addition, in the test with cells, the “Lactate change amount within cells” value is 6.7 nmol/mg cell.
As to `Cc1cc(=O)n(C)c2c1-c1oc(C(C)C)nc1C(=O)C2=O` [Example 7, 2-isopropyl-6,9-dimethyloxazolo[5,4-f]quinoline-4,5,7(6H)-trione], the “NQO1 activity (5 μM, [nmol cytochrome C reduced/min/μg protein])” value on NQO1 protein was 69.8 nmol cytochrome C reduced/min/μg protein. Also, in the test with cells, the “Lactate change amount within cells” value is on record as 8.0 nmol/mg cell.
`COc1cccc2c1C(=O)C(=O)c1nc(C(C)C)oc1-2` [Example 10, 2-isopropyl-6-methoxynaphtho[2,1-d]oxazole-4,5-dione]: the “NQO1 activity (5 μM, [nmol cytochrome C reduced/min/μg protein])” value on NQO1 protein (setting [1]) was 20.7 nmol cytochrome C reduced/min/μg protein. The “Lactate change amount within cells” value in the test with cells worked out at 11.5 nmol/mg cell.
Regarding `COc1cccc2c1-c1oc(CN(C)C)nc1C(=O)C2=O` [Example 11, 2-((dimethylamino)methyl)-9-methoxynaphtho[2,1-d]oxazole-4,5-dione], in the test with cells, the “Lactate change amount within cells” value worked out at 6.6 nmol/mg cell.
Turning to `CC(C)c1nc2c(o1)-c1c(cccc1[N+](=O)[O-])C(=O)C2=O` [Example 12, 2-isopropyl-9-nitronaphtho[2,1-d]oxazole-4,5-dione], the “NQO1 activity (5 μM, [nmol cytochrome C reduced/min/μg protein])” value at NQO1 protein (setting [1]) is 379.2 nmol cytochrome C reduced/min/μg protein. Moreover, the “Lactate change amount within cells” value with cells stood at 10.3 nmol/mg cell.
As to `CC(C)c1nc2c(o1)-c1c(N)cccc1C(=O)C2=O` [Example 13], at NQO1 protein (setting [1]), the “NQO1 activity (5 μM, [nmol cytochrome C reduced/min/μg protein])” value is reported as 68.6 nmol cytochrome C reduced/min/μg protein.
Consider `Cc1cc(=O)[nH]c2c1-c1oc(C(C)C)nc1C(=O)C2=O` [Example 14, 2-isopropyl-9-methyloxazolo[5,4-f]quinoline-4,5,7(6H)-trione], for which the “NQO1 activity (5 μM, [nmol cytochrome C reduced/min/μg protein])” value at NQO1 protein is recorded as 104.2 nmol cytochrome C reduced/min/μg protein.
Turning to `CC(C)c1nc2c(o1)-c1cccc(O)c1C(=O)C2=O` [Example 15, 6-hydroxy-2-isopropylnaphtho[2,1-d]oxazole-4,5-dione], the “NQO1 activity (5 μM, [nmol cytochrome C reduced/min/μg protein])” value at NQO1 protein (setting [1]) was 20.8 nmol cytochrome C reduced/min/μg protein. Also, the “Lactate change amount within cells” value with cells was 4.1 nmol/mg cell.
For the compound `COc1cccc2c1C(=O)C(=O)c1nc(C(C)(C)C)oc1-2` [Example 16, 2-tert-butyl-6-methoxynaphtho[2,1-d]oxazole-4,5-dione], the “NQO1 activity (5 μM, [nmol cytochrome C reduced/min/μg protein])” value on NQO1 protein (setting [1]) was 4.2 nmol cytochrome C reduced/min/μg protein.
On the same count and under the same terms, as for `CC(C)(C)c1nc2c(o1)-c1cccc(O)c1C(=O)C2=O` [Example 17, 2-tert-butyl-6-hydroxynaphtho[2,1-d]oxazole-4,5-dione], the figure is 7.4 nmol cytochrome C reduced/min/μg protein.
For `CC(C)(C)c1nc2c(o1)-c1c(cccc1[N+](=O)[O-])C(=O)C2=O` [Example 18], the “NQO1 activity (5 μM, [nmol cytochrome C reduced/min/μg protein])” value on NQO1 protein (setting [1]) is listed as 382.9 nmol cytochrome C reduced/min/μg protein. Also, the “Lactate change amount within cells” value with cells stood at 13.5 nmol/mg cell.
As for `CC(C)(C)c1nc2c(o1)-c1c(N)cccc1C(=O)C2=O` [Example 19], the “NQO1 activity (5 μM, [nmol cytochrome C reduced/min/μg protein])” value at NQO1 protein (setting [1]) was 0.4 nmol cytochrome C reduced/min/μg protein.
On to `CC(C)c1nc2c(o1)-c1cccnc1C(=O)C2=O` [Example 20, 2-isopropyloxazolo[5,4-f]quinoline-4,5-dione], for which the “NQO1 activity (5 μM, [nmol cytochrome C reduced/min/μg protein])” value on NQO1 protein (setting [1]) is recorded as 221.0 nmol cytochrome C reduced/min/μg protein. Besides, the “Lactate change amount within cells” value in the test on cells turned out to be 9.2 nmol/mg cell.
For the compound `COc1c([N+](=O)[O-])ccc2c1C(=O)C(=O)c1nc(C(C)(C)C)oc1-2` [Example 21, 2-tert-butyl-6-methoxy-7-nitronaphtho[2,1-d]oxazole-4,5-dione], the “NQO1 activity (5 μM, [nmol cytochrome C reduced/min/μg protein])” value at NQO1 protein (setting [1]) is given as 40.3 nmol cytochrome C reduced/min/μg protein.
Still for that read-out and setting: as for `COc1ccc([N+](=O)[O-])c2c1C(=O)C(=O)c1nc(C(C)(C)C)oc1-2` [Example 22, 2-tert-butyl-6-methoxy-9-nitronaphtho[2,1-d]oxazole-4,5-dione], the figure is 102.5 nmol cytochrome C reduced/min/μg protein.
For the compound `CC(C)(C)c1nc2c(o1)-c1c([N+](=O)[O-])ccc(O)c1C(=O)C2=O` [Example 23, 2-tert-butyl-6-hydroxy-9-nitronaphtho[2,1-d]oxazole-4,5-dione], the “NQO1 activity (5 μM, [nmol cytochrome C reduced/min/μg protein])” value on NQO1 protein (setting [1]) was 60.9 nmol cytochrome C reduced/min/μg protein.
In the case of `CC(C)(C)c1nc2c(o1)-c1c(O)cccc1C(=O)C2=O` [Example 25, 2-tert-butyl-9-hydroxynaphtho[2,1-d]oxazole-4,5-dione], the “NQO1 activity (5 μM, [nmol cytochrome C reduced/min/μg protein])” value at NQO1 protein (setting [1]) is listed as 23.5 nmol cytochrome C reduced/min/μg protein.
As to `CC(C)(C)c1nc2c(o1)C(=O)C(=O)c1cc(Cl)ccc1-2` [Example 31, 2-tert-butyl-7-chloronaphtho[1,2-d]oxazole-4,5-dione], the “Lactate change amount within cells” value in the test on cells was 10.9 nmol/mg cell.
In the case of `CC(C)c1nc2c(o1)C(=O)C(=O)c1ncccc1-2` [Example 33], the “NQO1 activity (5 μM, [nmol cytochrome C reduced/min/μg protein])” value on NQO1 protein (setting [1]) is 458.3 nmol cytochrome C reduced/min/μg protein. Moreover, the “Lactate change amount within cells” value with cells is 10.2 nmol/mg cell.
For `Cc1nc2c(o1)C(=O)C(=O)c1ncccc1-2` [Example 34] the same measures were 923.5 nmol cytochrome C reduced/min/μg protein and 8.9 nmol/mg cell.
For `CC(C)c1nc2c(o1)-c1cnccc1C(=O)C2=O` [Example 37, 2-isopropyloxazolo[4,5-h]isoquinoline-4,5-dione] the same measures were 845.7 nmol cytochrome C reduced/min/μg protein and 10.6 nmol/mg cell.
On to `CC(C)C(=O)Nc1ccc2c(c1)C(=O)C(=O)c1oc(C(C)(C)C)nc1-2` [Example 38, N-(2-tert-butyl-4,5-dioxo-4,5-dihydronaphtho[1,2-d]oxazol-7-yl)isobutyramide], for which the “NQO1 activity (5 μM, [nmol cytochrome C reduced/min/μg protein])” value on NQO1 protein (setting [1]) is on record as 63.4 nmol cytochrome C reduced/min/μg protein. Moreover, in the test with cells, the “Lactate change amount within cells” value came to 4.6 nmol/mg cell.
Taken in the same sequence, the figures for `O=C1C(=O)c2[nH]c(=O)oc2-c2ccccc21` [Example 39] were 30.1 nmol cytochrome C reduced/min/μg protein and 7.8 nmol/mg cell.
Take `CC(C)(C)c1nc2c(o1)C(=O)C(=O)c1cccnc1-2` [Example 40]: the “NQO1 activity (5 μM, [nmol cytochrome C reduced/min/μg protein])” value on NQO1 protein (setting [1]) was 527.4 nmol cytochrome C reduced/min/μg protein. Further, the “Lactate change amount within cells” value with cells stood at 8.1 nmol/mg cell.
Take `O=C1C(=O)c2nc(CNc3ccc(F)cc3)oc2-c2ccccc21` [Example 43]: on NQO1 protein, the “NQO1 activity (5 μM, [nmol cytochrome C reduced/min/μg protein])” value was 263.0 nmol cytochrome C reduced/min/μg protein. Further, the “Lactate change amount within cells” value in the test on cells amounted to 4.4 nmol/mg cell.
In the case of `O=C1C(=O)c2nc(CNc3ccc(Cl)cc3)oc2-c2ccccc21` [Example 44], at NQO1 protein, the “NQO1 activity (5 μM, [nmol cytochrome C reduced/min/μg protein])” value is given as 239.0 nmol cytochrome C reduced/min/μg protein. Also, the “Lactate change amount within cells” value with cells amounted to 5.4 nmol/mg cell.
For `O=C1C(=O)c2nc(CNc3cccc(Cl)c3)oc2-c2ccccc21` [Example 45] the same measures were 229.2 nmol cytochrome C reduced/min/μg protein and 6.7 nmol/mg cell.
For `COc1ccc(NCc2nc3c(o2)-c2ccccc2C(=O)C3=O)cc1` [Example 46] the same measures were 208.0 nmol cytochrome C reduced/min/μg protein and 7.4 nmol/mg cell.
In the case of `CN(Cc1nc2c(o1)-c1ccccc1C(=O)C2=O)c1ccc(F)cc1` [Example 47], the “NQO1 activity (5 μM, [nmol cytochrome C reduced/min/μg protein])” value on NQO1 protein (setting [1]) was 227.5 nmol cytochrome C reduced/min/μg protein. In the test with cells, the “Lactate change amount within cells” value is 7.6 nmol/mg cell.
With `O=C1C(=O)c2nc(CNc3ccccc3)oc2-c2ccccc21` [Example 48], at NQO1 protein, the “NQO1 activity (5 μM, [nmol cytochrome C reduced/min/μg protein])” value is on record as 241.4 nmol cytochrome C reduced/min/μg protein. In the test on cells, the “Lactate change amount within cells” value is 6.9 nmol/mg cell.
As to `Cc1cc(F)ccc1NCc1nc2c(o1)-c1ccccc1C(=O)C2=O` [Example 49], the “NQO1 activity (5 μM, [nmol cytochrome C reduced/min/μg protein])” value at NQO1 protein (setting [1]) is reported as 229.6 nmol cytochrome C reduced/min/μg protein. Moreover, the “Lactate change amount within cells” value in the test with cells came to 6.0 nmol/mg cell.
For `CC(=O)OCc1nc2c(o1)-c1ccccc1C(=O)C2=O` [Example 50] the same measures were 244.3 nmol cytochrome C reduced/min/μg protein and 8.8 nmol/mg cell.
